Biological target: Irp3 (Yersinia enterocolitica, UniProt O54512)
Assay: X-ray crystallography, […] Å, cocrystal
Format: binding
Conditions: with NADP+; pH 7.3; active site, substrate analogue, occupancy 70-85%

**Q.** O=C(O)[C@@H]1CSC(c2csc(-c3ccccc3O)n2)=N1 [HPTT-COOH, 2′-(2-Hydroxyphenyl)-4,5-dihydro[2,4′-bisthiazole]-4-carboxylic Acid] was tested. Which “X-ray crystallography, 1.28 Å, cocrystal” value did it give?
**A.** A holo-Irp3 structure was determined with both HPTT-COOH and NADP^+ bound.

Source: PMC5046821 (Biochemistry, 2016)
